Values of other authors, collected in paper PMC7904743, “WIDOCK: a reactive docking protocol for virtual screening of covalent inhibitors” (Journal of Computer-Aided Molecular Design, 2021).
Read-outs that look alike come from different tables or passages of the source.

Experiments:
[1] = thiol reactivity, cited from earlier work
[2] = tested on: OTUB2; conditions: experimental actives if % labeling higher than 50%; cited from earlier work
[3] = tested on: NUDT7; conditions: protein labeling at 200 μM; experimental actives if % labeling higher than 50%; cited from earlier work
[4] = natural log of average rate constant k
[5] = natural logarithm of average rate constant

O=C(CCl)N1CCN(c2ccc(O)cc2)CC1 [PCM-0102357, O=C(CCl)N1CCN(c2ccc(O)cc2)CC1]
ln(avg k) [1, 4]: -15.487
ln(avg k) [1, 5]: -15.487
OTUB2 % labeling [2]: 0%
NUDT7 % labeling [3]: 0%

Cc1cccc(C(C)C)c1NC(=O)CCl [PCM-0102358, Cc1cccc(C(C)C)c1NC(=O)CCl]
ln(avg k) [1, 4]: -16.961
ln(avg k) [1, 5]: -16.961
OTUB2 % labeling [2]: 0%
NUDT7 % labeling [3]: 0%

O=C(CCl)NC(=O)NC12CC3CC(CC(C3)C1)C2 [PCM-0102360, O=C(CCl)NC(=O)NC12CC3CC(CC(C3)C1)C2]
ln(avg k) [1, 4]: -16.068
ln(avg k) [1, 5]: -16.068
OTUB2 % labeling [2]: 12%
NUDT7 % labeling [3]: 0%

O=C(CCl)N1CCN(S(=O)(=O)c2ccc(F)c(F)c2)CC1 [PCM-0102361, O=C(CCl)N1CCN(S(=O)(=O)c2ccc(F)c(F)c2)CC1]
ln(avg k) [1, 4]: -15.093
ln(avg k) [1, 5]: -15.093
OTUB2 % labeling [2]: 0%
NUDT7 % labeling [3]: 0%

O=C1CN(C(=O)CCl)c2ccccc2N1 [PCM-0102362, O=C1CN(C(=O)CCl)c2ccccc2N1]
ln(avg k) [1, 4]: -15.567
ln(avg k) [1, 5]: -15.567
OTUB2 % labeling [2]: 0%
NUDT7 % labeling [3]: 0%

O=C1CC(C(F)(F)F)N(C(=O)CCl)c2ccccc2N1 (stereo not drawn) [PCM-0102363, O=C1CC(C(F)(F)F)N(C(=O)CCl)c2ccccc2N1]
ln(avg k) [1, 4]: -15.654
ln(avg k) [1, 5]: -15.654
OTUB2 % labeling [2]: 0%
NUDT7 % labeling [3]: 28%

O=C(CCl)Nc1cccc(F)c1 [PCM-0102364, O=C(CCl)Nc1cccc(F)c1]
ln(avg k) [1, 4]: -15.960
ln(avg k) [1, 5]: -15.960
OTUB2 % labeling [2]: 0%
NUDT7 % labeling [3]: 9%

CN(C)C(=O)CNC(=O)CCl [PCM-0102365, CN(C)C(=O)CNC(=O)CCl]
ln(avg k) [1, 4]: -17.142
ln(avg k) [1, 5]: -17.142
OTUB2 % labeling [2]: 0%
NUDT7 % labeling [3]: 0%

O=C(CCl)Nc1cc([N+](=O)[O-])ccc1Cl [PCM-0102366, O=C(CCl)Nc1cc([N+](=O)[O-])ccc1Cl]
ln(avg k) [1, 4]: -15.888
ln(avg k) [1, 5]: -15.888
OTUB2 % labeling [2]: 27%
NUDT7 % labeling [3]: 20%

COC(=O)c1sccc1NC(=O)CCl [PCM-0102367, COC(=O)c1sccc1NC(=O)CCl]
ln(avg k) [1, 4]: -15.715
ln(avg k) [1, 5]: -15.715
OTUB2 % labeling [2]: 0%
NUDT7 % labeling [3]: 12%

CN(C(=O)CCl)c1ccccc1 [PCM-0102368, CN(C(=O)CCl)c1ccccc1]
ln(avg k) [1, 4]: -15.648
ln(avg k) [1, 5]: -15.648
OTUB2 % labeling [2]: 0%
NUDT7 % labeling [3]: 0%

CCc1ccccc1NC(=O)CCl [PCM-0102369, CCc1ccccc1NC(=O)CCl]
ln(avg k) [1, 4]: -16.517
ln(avg k) [1, 5]: -16.517
OTUB2 % labeling [2]: 0%
NUDT7 % labeling [3]: 0%

COc1ccc(Cl)cc1NC(=O)CCl [PCM-0102370, COc1ccc(Cl)cc1NC(=O)CCl]
ln(avg k) [1, 4]: -15.854
ln(avg k) [1, 5]: -15.854
OTUB2 % labeling [2]: 18%
NUDT7 % labeling [3]: 23%

O=C(CCl)N(c1ccccc1)C1C=CS(=O)(=O)C1 (stereo not drawn) [PCM-0102372, O=C(CCl)N(c1ccccc1)C1C=CS(=O)(=O)C1]
ln(avg k) [1, 4]: -15.071
ln(avg k) [1, 5]: -15.071
OTUB2 % labeling [2]: 0%
NUDT7 % labeling [3]: 28%

O=C(CCl)N1CCN(c2ccccc2F)CC1 [PCM-0102373, O=C(CCl)N1CCN(c2ccccc2F)CC1]
ln(avg k) [1, 4]: -15.871
ln(avg k) [1, 5]: -15.871
OTUB2 % labeling [2]: 0%
NUDT7 % labeling [3]: 0%

CC(NC(=O)CCl)c1ccc(Br)cc1 (stereo not drawn) [PCM-0102374, CC(NC(=O)CCl)c1ccc(Br)cc1]
ln(avg k) [1, 4]: -16.325
ln(avg k) [1, 5]: -16.325
OTUB2 % labeling [2]: 34%
NUDT7 % labeling [3]: 23%

O=C(CCl)Nc1ccccc1N1CCCC1=O [PCM-0102375, O=C(CCl)Nc1ccccc1N1CCCC1=O]
ln(avg k) [1, 4]: -16.453
ln(avg k) [1, 5]: -16.453
OTUB2 % labeling [2]: 13%
NUDT7 % labeling [3]: 0%

O=C(CCl)NC(=O)Nc1ccccc1F [PCM-0102376, O=C(CCl)NC(=O)Nc1ccccc1F]
ln(avg k) [1, 4]: -15.900
ln(avg k) [1, 5]: -15.900
OTUB2 % labeling [2]: 0%
NUDT7 % labeling [3]: 0%

O=C(CCl)N1CCCCCCC1 [PCM-0102377, O=C(CCl)N1CCCCCCC1]
ln(avg k) [1, 4]: -15.780
ln(avg k) [1, 5]: -15.780
OTUB2 % labeling [2]: 0%
NUDT7 % labeling [3]: 0%

O=C(CCl)N1CCN(c2ncc(C(F)(F)F)cc2Cl)CC1 [PCM-0102378, O=C(CCl)N1CCN(c2ncc(C(F)(F)F)cc2Cl)CC1]
ln(avg k) [1, 4]: -15.476
ln(avg k) [1, 5]: -15.476
OTUB2 % labeling [2]: 5%
NUDT7 % labeling [3]: 14%

Cc1ccc(S(=O)(=O)N2CCN(C(=O)CCl)CC2)cc1C [PCM-0102379, Cc1ccc(S(=O)(=O)N2CCN(C(=O)CCl)CC2)cc1C]
ln(avg k) [1, 4]: -15.076
ln(avg k) [1, 5]: -15.076
OTUB2 % labeling [2]: 0%
NUDT7 % labeling [3]: 10%

O=C(CCl)N1N=C(c2ccco2)CC1c1ccco1 (stereo not drawn) [PCM-0102380, O=C(CCl)N1N=C(c2ccco2)CC1c1ccco1]
ln(avg k) [1, 4]: -15.395
ln(avg k) [1, 5]: -15.395
OTUB2 % labeling [2]: 0%
NUDT7 % labeling [3]: 54%

N#CC(c1ccccc1)N1CCN(C(=O)CCl)CC1 (stereo not drawn) [PCM-0102381, N#CC(c1ccccc1)N1CCN(C(=O)CCl)CC1]
ln(avg k) [1, 4]: -15.106
ln(avg k) [1, 5]: -15.106
OTUB2 % labeling [2]: 0%
NUDT7 % labeling [3]: 11%

Cc1ccc(-c2cc(NC(=O)CCl)on2)cc1 [PCM-0102382, Cc1ccc(-c2cc(NC(=O)CCl)on2)cc1]
ln(avg k) [1, 4]: -15.819
ln(avg k) [1, 5]: -15.819
OTUB2 % labeling [2]: 45%
NUDT7 % labeling [3]: 81%

O=C(CCl)NNC(=O)C1COc2ccccc2O1 (stereo not drawn) [PCM-0102384, O=C(CCl)NNC(=O)C1COc2ccccc2O1]
ln(avg k) [1, 4]: -17.088
ln(avg k) [1, 5]: -17.088
OTUB2 % labeling [2]: 27%
NUDT7 % labeling [3]: 0%

O=C(CCl)N1CCN(Cc2ccc3c(c2)OCCO3)CC1 [PCM-0102386, O=C(CCl)N1CCN(Cc2ccc3c(c2)OCCO3)CC1]
ln(avg k) [1, 4]: -15.669
ln(avg k) [1, 5]: -15.669
OTUB2 % labeling [2]: 0%
NUDT7 % labeling [3]: 0%

O=C(CCl)N1CCN(Cc2ccccc2F)CC1 [PCM-0102387, O=C(CCl)N1CCN(Cc2ccccc2F)CC1]
ln(avg k) [1, 4]: -15.308
ln(avg k) [1, 5]: -15.308
OTUB2 % labeling [2]: 32%
NUDT7 % labeling [3]: 0%

O=C(CCl)Nc1cc2[nH]c(=O)[nH]c2cc1Br [PCM-0102388, O=C(CCl)Nc1cc2[nH]c(=O)[nH]c2cc1Br]
ln(avg k) [1, 4]: -15.369
ln(avg k) [1, 5]: -15.369
OTUB2 % labeling [2]: 56%
NUDT7 % labeling [3]: 0%

O=C(Nc1ccccc1O)C1CCN(C(=O)CCl)CC1 [PCM-0102389, O=C(Nc1ccccc1O)C1CCN(C(=O)CCl)CC1]
ln(avg k) [1, 4]: -15.332
ln(avg k) [1, 5]: -15.332
OTUB2 % labeling [2]: 14%
NUDT7 % labeling [3]: 10%

Cc1ccccc1C(C)NC(=O)CCl (stereo not drawn) [PCM-0102390, Cc1ccccc1C(C)NC(=O)CCl]
ln(avg k) [1, 4]: -16.582
ln(avg k) [1, 5]: -16.582
OTUB2 % labeling [2]: 26%
NUDT7 % labeling [3]: 10%

O=C(CCl)NCC(=O)N1CCCC1 [PCM-0102391, O=C(CCl)NCC(=O)N1CCCC1]
ln(avg k) [1, 4]: -17.246
ln(avg k) [1, 5]: -17.246
OTUB2 % labeling [2]: 0%
NUDT7 % labeling [3]: 0%

O=C(CCl)Nc1ccc([N+](=O)[O-])cc1Cl [PCM-0102392, O=C(CCl)Nc1ccc([N+](=O)[O-])cc1Cl]
ln(avg k) [1, 4]: -15.878
ln(avg k) [1, 5]: -15.878
OTUB2 % labeling [2]: 21%
NUDT7 % labeling [3]: 16%

O=C(CCl)N1CCCC1c1cccs1 (stereo not drawn) [PCM-0102393, O=C(CCl)N1CCCC1c1cccs1]
ln(avg k) [1, 4]: -15.246
ln(avg k) [1, 5]: -15.246
OTUB2 % labeling [2]: 0%
NUDT7 % labeling [3]: 36%

Cc1cc(C)cc(NC(=O)CCl)c1 [PCM-0102394, Cc1cc(C)cc(NC(=O)CCl)c1]
ln(avg k) [1, 4]: -15.891
ln(avg k) [1, 5]: -15.891
OTUB2 % labeling [2]: 22%
NUDT7 % labeling [3]: 0%

N#Cc1ccccc1S(=O)(=O)N1CCN(C(=O)CCl)CC1 [PCM-0102395, N#Cc1ccccc1S(=O)(=O)N1CCN(C(=O)CCl)CC1]
ln(avg k) [1, 4]: -15.498
ln(avg k) [1, 5]: -15.498
OTUB2 % labeling [2]: 0%
NUDT7 % labeling [3]: 28%

O=C(CCl)Nc1cccc2ccccc12 [PCM-0102396, O=C(CCl)Nc1cccc2ccccc12]
ln(avg k) [1, 4]: -16.060
ln(avg k) [1, 5]: -16.060
OTUB2 % labeling [2]: 54%
NUDT7 % labeling [3]: 12%

O=C(CCl)N1CCN(Cc2ccc3c(c2)OCO3)CC1 [PCM-0102397, O=C(CCl)N1CCN(Cc2ccc3c(c2)OCO3)CC1]
ln(avg k) [1, 4]: -15.445
ln(avg k) [1, 5]: -15.445
OTUB2 % labeling [2]: 0%
NUDT7 % labeling [3]: 0%

Cc1ccc(C)c(NC(=O)CCl)c1 [PCM-0102398, Cc1ccc(C)c(NC(=O)CCl)c1]
ln(avg k) [1, 4]: -16.327
ln(avg k) [1, 5]: -16.327
OTUB2 % labeling [2]: 0%
NUDT7 % labeling [3]: 0%

Cc1ccc(CN(C)C(=O)CCl)o1 [PCM-0102399, Cc1ccc(CN(C)C(=O)CCl)o1]
ln(avg k) [1, 4]: -15.728
ln(avg k) [1, 5]: -15.728
OTUB2 % labeling [2]: 0%
NUDT7 % labeling [3]: 5%

O=C(CCl)Nc1ccc(C(=O)O)cc1 [PCM-0102400, O=C(CCl)Nc1ccc(C(=O)O)cc1]
ln(avg k) [1, 4]: -16.430
ln(avg k) [1, 5]: -16.430
OTUB2 % labeling [2]: 0%
NUDT7 % labeling [3]: 0%

CN(Cc1ccc(Br)cc1)C(=O)CCl [PCM-0102401, CN(Cc1ccc(Br)cc1)C(=O)CCl]
ln(avg k) [1, 4]: -15.733
ln(avg k) [1, 5]: -15.733
OTUB2 % labeling [2]: 0%
NUDT7 % labeling [3]: 58%

CC(NC(=O)CCl)C12CC3CC(CC(C3)C1)C2 (stereo not drawn) [PCM-0102402, CC(NC(=O)CCl)C12CC3CC(CC(C3)C1)C2]
ln(avg k) [1, 4]: -17.061
ln(avg k) [1, 5]: -17.061
OTUB2 % labeling [2]: 24%
NUDT7 % labeling [3]: 7%
